{"source": "the METLIN SMRT retention time set (Domingo-Almenara et al. 2019)", "data": [{"assay": "gradient 5% acetonitrile 3 min, to 50% in 2 min, to 85% in 15 min, held 3 min, 100 µL/min", "conditions": "column: Zorbax Extend-C18 2.1 x 50 mm; eluents: water / acetonitrile, 0.1% formic acid", "summary_of_the_method": "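Retention times of pure standards were taken from adduct peaks that were selected by computer and manually inspected. Over 3 months, mixtures of ~100 molecules were run by HPLC–quadrupole time-of-flight mass spectrometry in positive and negative ionization mode. The Zorbax Extend-C18 column (2.1 × 50 mm, 1.8 μm) ran at 100 μL/min in water and acetonitrile, each containing 0.1% formic acid, with 40 μL dead volume and 900 μL dwell volume.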", "units": {"RP-LC retention time": "s"}, "values": [{"molecule": "Cc1ccc2c(c1)OCC(=O)N2Cc1nc(-c2ccc(C(C)(C)C)cc2)no1", "RP-LC retention time": 1290}, {"molecule": "Cc1ccc(C)c(N2CCN(c3ccnc(SCC(=O)Nc4cccc(C)c4C)n3)CC2)c1", "RP-LC retention time": 1000}, {"molecule": "O=C(CCn1nnc2cc(-c3noc(-c4ccc(F)c(F)c4)n3)ccc21)N1CCCC1", "RP-LC retention time": 946}, {"molecule": "CCc1ccc(-c2nc(C3CC(=O)N(c4ccc(F)c(Cl)c4)C3)no2)cc1", "note": "(stereo unspecified)", "RP-LC retention time": 1200}, {"molecule": "Cc1cccc(N2C(=O)CN(S(=O)(=O)c3ccccc3)CC2(C)C(=O)NC2CCCC2)c1C", "note": "(stereo unspecified)", "RP-LC retention time": 968}, {"molecule": "Cc1ccc2oc(CN3CCN(C(=O)Nc4ccccc4F)CC3)nc2c1", "RP-LC retention time": 699}, {"molecule": "O=C(NCc1ccco1)C1CCN(c2ccc(Sc3ccccc3)nn2)CC1", "RP-LC retention time": 1060}, {"molecule": "O=C(Cc1ccc(F)cc1)NC1CCN(c2cc(-c3ccc(F)cc3)[nH]n2)C1", "note": "(stereo unspecified)", "RP-LC retention time": 720}, {"molecule": "CCN1CCCCc2cc(C(=O)NC(C)COC)sc21", "note": "(stereo unspecified)", "RP-LC retention time": 905}, {"molecule": "COc1ccc(-c2nccn3cc(C(=O)O)nc23)cc1", "RP-LC retention time": 672}, {"molecule": "C=CCn1c2ccccc2c2nnc(SC(CC)C(=O)Nc3nc(-c4ccccc4)cs3)nc21", "note": "(stereo unspecified)", "RP-LC retention time": 1190}, {"molecule": "CCCS(=O)(=O)N1CCCC(c2nnc(-c3cccs3)o2)C1", "note": "(stereo unspecified)", "RP-LC retention time": 749}, {"molecule": "Cc1cccc(N2CCN(C(=S)Nc3ccc4nc(N5CCN(C)CC5)cc(C)c4c3)CC2)c1C", "RP-LC retention time": 655}, {"molecule": "COCCOCc1nc(C2CCCN2S(=O)(=O)c2ccccc2)no1", "note": "(stereo unspecified)", "RP-LC retention time": 781}, {"molecule": "CCCc1nc(C(C)(C)O)c(C(=O)O)n1Cc1ccc(-c2ccccc2-c2nn[nH]n2)cc1", "RP-LC retention time": 687}, {"molecule": "O=C(Cn1c(CN2CCCCCC2)nc2ccccc21)N1CCCCCC1", "RP-LC retention time": 678}, {"molecule": "CCOC(=O)c1ccc(NC(=O)C2CCCN(S(C)(=O)=O)C2)cc1", "note": "(stereo unspecified)", "RP-LC retention time": 762}, {"molecule": "Cc1cc2c(c(=O)n(-c3ccccc3)c(=O)n2CC(=O)Nc2cccc(Cl)c2)n1C", "RP-LC retention time": 870}, {"molecule": "COc1ccc(Cl)cc1NC(=O)N1CCN(c2cc(C)nc(N3CCOCC3)n2)CC1", "RP-LC retention time": 659}, {"molecule": "O=C1NCCCn2cc(S(=O)(=O)N3CCN(c4ccccn4)CC3)cc21", "RP-LC retention time": 550}, {"molecule": "Nc1nc(Nc2ccccc2Cl)nc2ccccc12", "RP-LC retention time": 615}, {"molecule": "CC(C)N1CCC2(CC1)N=C(c1ccc(Br)cc1)CC(c1cc(Cl)ccc1O)N2", "note": "(stereo unspecified)", "RP-LC retention time": 711}, {"molecule": "CCC(Oc1ccc(=O)n(-c2cc(Cl)ccc2C)n1)C(=O)NCCOC", "note": "(stereo unspecified)", "RP-LC retention time": 698}, {"molecule": "Cc1cn(C)c(CC(=O)NC2CCCCCC2)c1C(=O)O", "RP-LC retention time": 765}, {"molecule": "Cc1ccc2c(c1)N(Cc1ccccc1C)N=C(C(=O)N1CCOCC1)S2(=O)=O", "RP-LC retention time": 877}, {"molecule": "CCOc1ccc(-n2c(CN3CCN(C(=O)NC4CCCC4)CC3)nc3cccnc32)cc1", "RP-LC retention time": 636}, {"molecule": "Cc1c(S(=O)(=O)NCc2ccc3c(c2)CCN3C(=O)CC(C)C)cnn1C(F)F", "RP-LC retention time": 911}, {"molecule": "Cc1ccc2oc(N3CCCN(C(=O)c4ccc(-c5noc(C6CC6)n5)cc4)CC3)nc2n1", "RP-LC retention time": 648}, {"molecule": "CCc1nc(-c2csc(S(=O)(=O)N3CCC(C(=O)NCc4cccnc4)CC3)c2)no1", "RP-LC retention time": 645}, {"molecule": "COc1ccc(CNC(=O)CN2CCN(Cc3ccccc3)C(=O)C2=O)cc1", "RP-LC retention time": 684}, {"molecule": "CCN1CCN(c2nc(F)c3c(c2F)S(=O)(=O)CCN3Cc2ccccc2)CC1", "RP-LC retention time": 682}, {"molecule": "COCCn1c(-c2ccccc2)cnc1SCC(=O)Nc1ccccc1", "RP-LC retention time": 669}, {"molecule": "CCOc1ccccc1NC(=O)C1CCN(S(=O)(=O)c2ccc3c(c2)sc(=O)n3C)CC1", "RP-LC retention time": 931}, {"molecule": "COc1cccc(NC(=O)C2CCCCN2S(=O)(=O)c2ccc(F)cc2)c1", "note": "(stereo unspecified)", "RP-LC retention time": 1000}, {"molecule": "CC(C)CNC(=O)Cc1nnc(-c2cccc(F)c2)o1", "RP-LC retention time": 744}, {"molecule": "COc1ccc2c(c1)C1(CCN(C(=O)c3ccc(C#N)cc3)C1)C(=O)N2", "note": "(stereo unspecified)", "RP-LC retention time": 762}, {"molecule": "O=C(Cn1cnc(-c2cccs2)cc1=O)NCCn1nc(-c2cccs2)ccc1=O", "RP-LC retention time": 666}, {"molecule": "CCC1(O)CCOC2(CCN(C(=O)C3CC=CC3)CC2)C1", "note": "(stereo unspecified)", "RP-LC retention time": 686}, {"molecule": "Cn1ncc2c(N3CCCC3)nc(C(=O)NCc3ccc(F)cc3)nc21", "RP-LC retention time": 790}, {"molecule": "Cc1ccc(N(Cc2nc3nc(C)c(Cl)c(C)n3n2)C(=O)c2ccco2)cc1", "RP-LC retention time": 887}, {"molecule": "CCCNC(=O)CN1C(=O)CCn2nc(-c3cn(C)c4ccccc34)cc21", "RP-LC retention time": 730}, {"molecule": "CN(CCc1noc(C2CN(Cc3cccc(C(F)(F)F)c3)C2)n1)S(C)(=O)=O", "RP-LC retention time": 643}, {"molecule": "O=C(Cn1ccc2ccccc21)NCCn1nc(-n2ccnc2)ccc1=O", "RP-LC retention time": 546}, {"molecule": "O=C(NC1CCCCC1)c1csc(N2CCN(c3ccccc3)CC2)n1", "RP-LC retention time": 1160}, {"molecule": "COc1ccc(NC(=O)N2CCN(c3ccc(=O)n(-c4ccc(C)cc4)n3)CC2)c(OC)c1", "RP-LC retention time": 804}, {"molecule": "O=C(Cc1nnc(-c2ccc3ncccc3c2)o1)NCc1ccc(Cl)cc1", "RP-LC retention time": 721}, {"molecule": "CC(=O)c1cccc(Nc2c(C(=O)OC(C)C)cnc3nc(C)ccc23)c1", "RP-LC retention time": 694}, {"molecule": "Cc1nc2c(sc3nc(-c4ccccc4)ccc32)c(=O)n1CC(=O)Nc1ccccc1F", "RP-LC retention time": 982}, {"molecule": "CCn1c(C(=O)NCc2ccc(OC)cc2)cc2sc(Cl)cc21", "RP-LC retention time": 1130}, {"molecule": "COC(=O)c1c(C)[nH]c(C(=O)N2CCC(CC(=O)NCc3cccc(C)c3)CC2)c1C", "RP-LC retention time": 748}, {"molecule": "COc1ccc(CCNC(=O)c2ccc3[nH]c4c(c3c2)CN(C(C)=O)CC4)cc1OC", "RP-LC retention time": 650}, {"molecule": "Nc1nc(N2CCOCC2)ncc1C(=O)Nc1ccccc1", "RP-LC retention time": 611}, {"molecule": "COc1ccc(Cl)cc1NC(=O)N1CCCC1c1nc(-c2ccc(F)cc2F)no1", "note": "(stereo unspecified)", "RP-LC retention time": 1120}, {"molecule": "O=C(NCc1ccc2c(c1)CCN2C(=O)c1ccccc1)C1CCN(S(=O)(=O)N2CCCC2)CC1", "RP-LC retention time": 829}, {"molecule": "CC(C)CN(Cc1cccnc1)C1CN(C(=O)NCc2ccccc2)C1", "RP-LC retention time": 627}, {"molecule": "Nc1cc(C2CCN(C(=O)c3ccc(F)cc3)CC2)no1", "RP-LC retention time": 675}, {"molecule": "CC(=O)Nc1ccc(-n2cnc(C(=O)N3CCN(c4ccc(C)cc4)CC3)c2)nc1", "RP-LC retention time": 682}, {"molecule": "Cc1cccc(CNC(=O)c2cc3n(n2)CC(C)(C(=O)NC2CCCC2)N(C)C3=O)c1", "note": "(stereo unspecified)", "RP-LC retention time": 731}, {"molecule": "COc1ccc2c(c1)C1(CCN(C(=O)c3ccccc3Cl)C1)C(=O)N2", "note": "(stereo unspecified)", "RP-LC retention time": 708}, {"molecule": "COc1ccc(CNC(=O)c2cn3cccc(C)c3n2)cc1OC", "RP-LC retention time": 604}, {"molecule": "Cc1cc(NC(=O)c2ccc(S(=O)(=O)Nc3ccc4c(c3)OCO4)o2)no1", "RP-LC retention time": 737}, {"molecule": "COc1ccc(C2(C)NC(=O)N(CC(=O)Nc3ccc([N+](=O)[O-])cc3)C2=O)cc1", "note": "(stereo unspecified)", "RP-LC retention time": 727}, {"molecule": "COCCNC(=O)c1nnn(-c2ccc(F)cc2)c1-c1ccncc1", "RP-LC retention time": 663}, {"molecule": "Cc1cc(NC(=O)C2(C)Oc3cccnc3NC2=O)ccc1F", "note": "(stereo unspecified)", "RP-LC retention time": 739}, {"molecule": "CCOC(=O)c1noc2ncnc(NC3CCCc4ccccc43)c12", "note": "(stereo unspecified)", "RP-LC retention time": 1120}, {"molecule": "CCOc1ccc(NCC(O)Cn2c3ccccc3n3c(=O)cc(C)c(C#N)c23)cc1", "note": "(stereo unspecified)", "RP-LC retention time": 668}]}]}
